The record followed here is ChEMBL document CHEMBL6153159, “Eperisone Analogs, Rescuers of MiaB Defects As a Prokaryotic Homologue of CDKAL1, Suppress Blood Glucose Elevation in Rats” (ACS Med Chem Lett, 2025).

Activity calls are given as the source filed them. No cut-off for these calls is given here.

The target in data set [1] is T1, Threonylcarbamoyladenosine tRNA methylthiotransferase (Homo sapiens) (UniProt Q5VV42).
T1 sequence (whole entry): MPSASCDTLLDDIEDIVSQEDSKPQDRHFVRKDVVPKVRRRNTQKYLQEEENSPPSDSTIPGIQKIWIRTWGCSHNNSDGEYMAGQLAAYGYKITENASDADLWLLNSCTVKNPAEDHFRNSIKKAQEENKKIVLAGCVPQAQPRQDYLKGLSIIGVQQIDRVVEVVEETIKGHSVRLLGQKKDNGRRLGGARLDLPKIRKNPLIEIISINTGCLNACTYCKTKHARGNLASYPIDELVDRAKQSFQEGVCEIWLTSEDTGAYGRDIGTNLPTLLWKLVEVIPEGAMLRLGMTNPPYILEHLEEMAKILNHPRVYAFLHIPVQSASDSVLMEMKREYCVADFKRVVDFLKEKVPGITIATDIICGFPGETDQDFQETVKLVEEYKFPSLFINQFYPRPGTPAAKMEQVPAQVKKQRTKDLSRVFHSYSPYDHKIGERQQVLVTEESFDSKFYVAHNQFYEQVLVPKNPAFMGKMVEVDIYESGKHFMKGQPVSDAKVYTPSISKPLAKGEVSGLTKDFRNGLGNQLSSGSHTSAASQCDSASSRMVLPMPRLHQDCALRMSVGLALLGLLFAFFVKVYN
Put plainly: Rescue of mistranslation activity in CDKAL1 (unknown origin) extracted from Escherichia coli harboring MIaB deficient at 10 uM incubated for 1 hr by dual luciferase assay.

Data set [2] concerns Rattus norvegicus. Put plainly: Hypoglycemic effect in male Wister rat assessed as reduction in blood glucose level at 100 mg/kg, sc measured immediately after oral glucose challenge by OGTT analysis. The following applies: time 0.0 min. Format: functional, organism-based.
Data set [3] has as its system MIN6. Put plainly: Induction of insulin secretion in mouse MIN6 cells at 10 uM incubated for 24 hrs by ELISA method. The data set is classed as functional, cell-based.
The subject of data set [4] is MIN6. Put plainly: Cytotoxicity against mouse MIN6 cells at 10 uM by MTT assay relative to control. Format: toxicity, cell-based. The following applies: min6, 10 µM.
A short description of data set [5]: Drug concentration in Wister rat plasma at 100 mg/kg, sc measured after 60 mins. The data set is classed as ADME, organism-based. The following applies: Wistar.
The nature of data set [6]: Drug concentration in Wister rat plasma at 100 mg/kg, po measured after 60 mins. The data set is classed as ADME, organism-based. Conditions: Wistar.
The test system of data set [7] is Rattus norvegicus. Put plainly: Antihyperglycemic activity in male Wister rat assessed as reduction in blood glucose level at 100 mg/kg, sc measured at 30 mins after oral glucose challenge by OGTT analysis. The data set is classed as functional, organism-based.
Data set [8] relates to Rattus norvegicus. Put plainly: Antihyperglycemic activity in male Wister rat assessed as reduction in blood glucose level at 100 mg/kg, sc measured at 60 mins after oral glucose challenge by OGTT analysis. Format: functional, organism-based.
In data set [9] the test system is MIN6. Put plainly: Induction of insulin secretion in mouse MIN6 cells at 3 uM incubated for 24 hrs by ELISA method. Format: functional, cell-based.

Consider `CC(C)(C)c1ccc(C(=O)CCN2CCCCC2)cc1`, for which, in data set [1], the Ratio is 0.8.
In the case of `CC(C)[C@H]1CC[C@H](C(=O)N[C@H](Cc2ccccc2)C(=O)O)CC1`, the outcome in the data set with Rattus norvegicus [2] was Active.
Regarding `CCc1ccc(C(=O)C(C)(C)CN2CCCCC2)cc1`, the Ratio in data set [1] was found to be 0.66.
Regarding `CCc1ccc(C(=O)C(C)CN2CCCCC2)cc1` (stereo not drawn), the Ratio in data set [1] was 0.7.
For `CCc1ccc(C(=O)CCN2CCCCC2)cc1`, the Ratio in data set [1] came out at 0.8.
As to `COCCOc1ccc(C(=O)C(C)CN2CCCCC2)cc1.Cl` (racemic), the Ratio in [1] stood at 0.53. Further, the outcome in the data set with MIN6 [3], in the data set on Rattus norvegicus [7] and in the data set on Rattus norvegicus [8] was Active. In the data set with MIN6 [4], this compound returned an Activity of 3%. In addition, the concentration at 1 h was above 15 µM in [5] and at most 2 µM in [6]. The outcome in the data set with Rattus norvegicus [2] was inactive.
Regarding `CC(CN1CCCCC1)C(=O)c1ccc(C(C)(C)C)cc1.Cl` (racemic), the Ratio in data set [1] was 0.44. The outcome in the data set with MIN6 [9], in the data set with Rattus norvegicus [7] and with Rattus norvegicus [8] was Active. In addition, in the data set with MIN6 [4], the Activity is reported as 4%. Also, the concentration at 1 h in data set [5] is above 15 µM; in [6], at most 2 µM. The outcome with Rattus norvegicus [2] was inactive.
Consider `CC(C)(C)c1ccc(C(=O)C(CN2CCCCC2)C(=O)O)cc1` (racemic), for which, in [1], the Ratio is 1.16.
Still for that read-out and setting: under `CC(C)COc1ccc(C(=O)C(C)CN2CCCCC2)cc1` (racemic) stands 0.88; under `CC(C)Oc1ccc(C(=O)C(C)CN2CCCCC2)cc1` (racemic), 0.93.
On to `CC(CN1CCCCC1)C(=O)c1ccc(Br)cc1` (racemic), for which, in data set [1], the Ratio turned out to be 0.84.
For `CC(CN1CCCCC1)C(=O)c1ccc(C(C)C)cc1` (racemic), the Ratio in data set [1] was 0.78.
Regarding `CC(CN1CCCCC1)C(=O)c1ccc(C(F)(F)F)cc1` (racemic), in data set [1], the Ratio turned out to be 0.87.
For `CC(CN1CCCCC1)C(=O)c1ccc(C2CCCCC2)cc1` (racemic), the Ratio in data set [1] turned out to be 1.3.
`CC(CN1CCCCC1)C(=O)c1ccc(CC(C)(C)C)cc1` (racemic): in [1], the Ratio was found to be 1.05.
Turning to `CC(CN1CCCCC1)C(=O)c1ccc(Cl)cc1` (racemic), in [1], the Ratio was found to be 0.86.
Turning to `CC(CN1CCCCC1)C(=O)c1ccc(F)cc1` (racemic), the Ratio in data set [1] was 1.08.
Same read-out and setting: under `CC(CN1CCCCC1)C(=O)c1ccc(O)cc1` (racemic) stands 0.71.
Still for that read-out and setting: with `CC(CN1CCCCC1)C(=O)c1ccc(OCCO)cc1` (racemic) the figure was 0.82; with `CC(CN1CCCCC1)C(=O)c1cccc(C(C)(C)C)c1` (racemic), 0.95.
Same read-out and setting: with `CCC(C)(C)c1ccc(C(=O)C(C)CN2CCCCC2)cc1` (racemic) the figure was 0.85; with `CCC(CN1CCCCC1)C(=O)c1ccc(C(C)(C)C)cc1` (racemic), 0.73; with `CCCCOc1ccc(C(=O)C(C)CN2CCCCC2)cc1` (racemic), 0.8.
For `CCCOc1ccc(C(=O)C(C)CN2CCCCC2)cc1` (racemic), the Ratio in data set [1] worked out at 0.85.
As for `CCCc1ccc(C(=O)C(C)CN2CCCCC2)cc1` (racemic), the Ratio in [1] is 1.01.
As to `CCOc1ccc(C(=O)C(C)CN2CCCCC2)cc1` (racemic), the Ratio in data set [1] was determined as 0.84.
Consider `CCc1ccc(C(=O)C(C)CC2CCNCC2)cc1` (racemic), for which, in [1], the Ratio is 0.75.
As for `CCc1ccc(C(=O)C(C)CN2CCC(C)CC2)cc1` (racemic), in data set [1], the Ratio stood at 0.98.
As for `CCc1ccc(C(=O)C(C)CN2CCC(OC)CC2)cc1` (racemic), the Ratio in data set [1] amounted to 1.13.
The same measure, in the same setting: with `CCc1ccc(C(=O)C(C)CN2CCC(c3ccccc3)CC2)cc1` (racemic) the figure was 1.01; with `CCc1ccc(C(=O)C(C)CN2CCCC2)cc1` (racemic), 1.01; with `CCc1ccc(C(=O)C(C)CN2CCCCC2)o1` (racemic), 0.99.
`CCc1ccc(C(=O)C(C)CN2CCCCC2)s1` (racemic): the Ratio in data set [1] was 0.63.
On the same count and under the same terms, under `CCc1ccc(C(=O)C(C)CN2CCCCCC2)cc1` (racemic) stands 1.01.
With `CCc1ccc(C(=O)C(C)CN2CCN(C)CC2)cc1` (racemic), the Ratio in [1] is 0.7.
Regarding `CCc1ccc(C(=O)C(C)CN2CCN(CC)CC2)cc1` (racemic), the Ratio in data set [1] turned out to be 0.71.
In the case of `CCc1ccc(C(=O)C(C)CN2CCOCC2)cc1` (racemic), the Ratio in data set [1] amounted to 1.29.
`CCc1ccc(C(=O)C(C)CN2CCSCC2)cc1` (racemic): in data set [1], the Ratio stood at 0.97.
The same measure, in the same setting: with `CCc1ccc(C(=O)C(C)CNC2CCCCC2)cc1` (racemic) the figure was 0.95.
Regarding `CCc1ccc(C(=O)C(C)Cc2ccncc2)cc1` (racemic), the Ratio in data set [1] is 1.04.
In the case of `CCc1cccc(C(=O)C(C)CN2CCCCC2)c1` (racemic), the Ratio in data set [1] was found to be 0.95.
Take `CCc1ccccc1C(=O)C(C)CN1CCCCC1` (racemic): the Ratio in data set [1] was 0.98.
Take `CSCCOc1ccc(C(=O)C(C)CN2CCCCC2)cc1` (racemic): the Ratio in [1] was 0.96.
Consider `Cc1ccc(C(=O)C(C)CN2CCCCC2)cc1` (racemic), for which the Ratio in data set [1] came out at 0.99.
